The subject of this experiment is PMS1. Put plainly: Mini-Gene Reporter Assay—PMS1 (firefly luciferase mini-gene reporter transiently transfected into HEK293 cells). Particulars: Homo sapiens, mini-gene firefly luciferase reporter in HEK293 cells. The format is cell-based. The procedure, abridged: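 HEK293 cells transiently transfected with a mini-gene construct (skipped exon with flanking introns/exons fused to firefly luciferase, pcDNA3.1) are incubated with compounds in duplicate. Exon inclusion raises luminescence; EC50 fitted by Levenberg-Marquardt; effect also scored at 5 μM.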

The source of these data is patent US20250066389A1, “HETEROCYCLIC AMIDES AND METHODS OF USING THE SAME” (Rgenta Therapeutics, Inc., priority 2021, published 2025).

Where a name gives a salt, the structure may show the parent alone.

Turning to `Cn1cc2cc(C(=O)Nc3ccc(N4CCNCC4)nn3)c(OC3CCC3)cc2n1` [Compound 207, 6-cyclobutoxy-2-methyl-N-(6-(piperazin-1-yl)pyridazin-3-yl)-2H-indazole-5-carboxamide HCl Salt], the 50% inhibitory concentration (IC50) is < 1 µM.
Turning to `CCOc1cc2nn(C)cc2cc1C(=O)Nc1ccc(N2CCN[C@@H](C)C2)nn1` [Compound 208, (S)-6-ethoxy-2-methyl-N-(6-(3-methylpiperazin-1-yl)pyridazin-3-yl)-2H-indazole-5-carboxamide HCl Salt], the half-inhibitory concentration (IC50) was < 1 µM. The activation at 5 µM (at 5 uM, read-out: PMS1 % Effect at 5 uM) was > 75%.
Take `C[C@H]1CN(c2ccc(NC(=O)c3cc4cn(C)nc4cc3OC3CCC3)nn2)CCN1` [Compound 209, (S)-6-cyclobutoxy-2-methyl-N-(6-(3-methylpiperazin-1-yl)pyridazin-3-yl)-2H-indazole-5-carboxamide HCl Salt]: the 50% inhibitory concentration (IC50) is < 1 µM.
As for `CCOc1cc2nc(C)cn2cc1C(=O)Nc1ccc(N2CCNC3(CC3)C2)nn1` [Compound 210, N-(6-4,7-diazaspiro[2.5]octan-7-ylpyridazin-3-yl)-7-ethoxy-2-methylimidazo[1,2-a]pyridine-6-carboxamide], the half-maximal inhibitory concentration (IC50) was < 1 µM.
`Cc1cn2cc(C(=O)Nc3ccc(N4CCN[C@@H](C)C4)nn3)c(OC3CCOCC3)cc2n1` [Compound 211, (S)-2-methyl-N-(6-(3-methylpiperazin-1-yl)pyridazin-3-yl)-7-((tetrahydro-2H-pyran-4-yl)oxy)imidazo[1,2-a]pyridine-6-carboxamide hydrochloride] showed an IC50 of 10 to 50 µM.
Same read-out and setting: next, `Cc1cn2cc(C(=O)Nc3ccc(N4CCN[C@@H](C)C4)nn3)c(O[C@@H]3CCOC3)cc2n1` [Compound 212, 2-methyl-N-(6-((S)-3-methylpiperazin-1-yl)pyridazin-3-yl)-7-((tetrahydrofuran-3-yl)oxy)imidazo[1,2-a]pyridine-6-carboxamide]: 1 to 10 µM; `Cc1cn2cc(C(=O)Nc3ccc(N4CCN[C@@H](C)C4)nn3)c(O[C@H]3CCOC3)cc2n1` [Compound 213, 2-methyl-N-(6-((S)-3-methylpiperazin-1-yl)pyridazin-3-yl)-7-((tetrahydrofuran-3-yl)oxy)imidazo[1,2-a]pyridine-6-carboxamide]: < 1 µM; `CCc1nc(C(=O)Nc2ccc(N3CCN[C@@H](C)C3)nn2)cn2cc(C)nc12` [Compound 214, 8-ethyl-2-methyl-N-{6-[(3S)-3-methylpiperazin-1-yl]pyridazin-3-yl}imidazo[1,2-a]pyrazine-6-carboxamide]: < 1 µM.
Same read-out and setting: next, `CCOc1cn2nc(C)cc2cc1C(=O)Nc1ccc(N2CCN[C@@H](C)C2)nn1` [Compound 215, (S)-6-ethoxy-2-methyl-N-(6-(3-methylpiperazin-1-yl)pyridazin-3-yl)pyrazolo[1,5-a]pyridine-5-carboxamide HCl Salt]: < 1 µM; `Cc1cn2cc(C(=O)Nc3ccc(N4CCN[C@@H](C)C4)nn3)c(OCC(F)(F)F)cc2n1` [Compound 216, (S)-2-methyl-N-(6-(3-methylpiperazin-1-yl)pyridazin-3-yl)-7-(2,2,2-trifluoroethoxy)imidazo[1,2-a]pyridine-6-carboxamide]: < 1 µM.
Regarding `CCOc1cc2nc(C)cn2cc1C(=O)Nc1ccc(N2CCN[C@@H](C)C2)nn1` [Compound 217, (S)-7-ethoxy-2-methyl-N-(6-(3-methylpiperazin-1-yl)pyridazin-3-yl)imidazo[1,2-a]pyridine-6-carboxamide HCl Salt], the IC50 is < 1 µM.
Same read-out and setting: the figure for `Cc1cn2cc(C(=O)Nc3ccc(N4CCN[C@@H](C)C4)nn3)c(OC3CCCOC3)cc2n1` (stereo partly drawn) [Compound 218, 2-methyl-N-(6-((S)-3-methylpiperazin-1-yl)pyridazin-3-yl)-7-((tetrahydro-2H-pyran-3-yl)oxy)imidazo[1,2-a]pyridine-6-carboxamide] is 1 to 10 µM.
With `Cc1cn2cc(C(=O)Nc3ccc(N4CCNC(C)(C)C4)nn3)c(OC3CCC3)cc2n1` [Compound 219, 7-cyclobutoxy-N-(6-(3,3-dimethylpiperazin-1-yl)pyridazin-3-yl)-2-methylimidazo[1,2-a]pyridine-6-carboxamide], the concentration for half-maximal inhibition (IC50) is < 1 µM.
Same read-out and setting: the figure for `CCOc1cc2nn(C)cc2cc1C(=O)Nc1ccc(N2CCNC(C)(C)C2)nn1` [Compound 220, N-(6-(3,3-dimethylpiperazin-1-yl)pyridazin-3-yl)-6-ethoxy-2-methyl-2H-indazole-5-carboxamide hydrochloride] is < 1 µM.
Still for that read-out and setting: the figure for `CCOc1cc2nc(C)cn2cc1C(=O)Nc1ccc(N2CCNC(C)(C)C2)nn1` [Compound 221, N-(6-(3,3-dimethylpiperazin-1-yl)pyridazin-3-yl)-7-ethoxy-2-methylimidazo[1,2-a]pyridine-6-carboxamide hydrochloride] is < 1 µM; for `CCOc1cc2nn(C)cc2cc1C(=O)Nc1cc(C)c(N2CCN[C@@H](C)C2)nn1` [Compound 222, (S)-6-ethoxy-2-methyl-N-(5-methyl-6-(3-methylpiperazin-1-yl)pyridazin-3-yl)-2H-indazole-5-carboxamide hydrochloride] it is 1 to 10 µM; for `CCOc1nc2nc(C)cn2cc1C(=O)Nc1ccc(N2CCN[C@@H](C)C2)nn1` [Compound 224, (S)-7-ethoxy-2-methyl-N-(6-(3-methylpiperazin-1-yl)pyridazin-3-yl)imidazo[1,2-a]pyrimidine-6-carboxamide hydrochloride] it is < 1 µM.
On to `CCOc1nc2nn(C)cc2cc1C(=O)Nc1ccc(N2CCN[C@@H](C)C2)nn1` [Compound 225, (S)-6-ethoxy-2-methyl-N-(6-(3-methylpiperazin-1-yl)pyridazin-3-yl)-2H-pyrazolo[3,4-b]pyridine-5-carboxamide hydrochloride], for which the IC50 was < 1 µM.
Still for that read-out and setting: the figure for `CCOc1cc2nc(C)cn2cc1C(=O)Nc1ccc(N2CCC(NC)CC2)nn1` [Compound 226] is 1 to 10 µM; for `CCOc1cc2nc(C)cn2cc1C(=O)Nc1ccc(N2CC(C3CCNC3)C2)nn1` (centres unmarked) [Compound 227] it is 1 to 10 µM; for `CCOc1cc2nc(C)cn2cc1C(=O)Nc1ccc(N2CCNC(CC(F)F)C2)nn1` (centres unmarked) [Compound 228] it is < 1 µM.
On the same count and under the same terms, next, `CCOc1cc2nc(C)cn2cc1C(=O)Nc1ccc(N2CC3=C(CNC3)C2)nn1` [Compound 229]: < 1 µM; `CCOc1cc2nc(C)cn2cc1C(=O)Nc1ccc(N2CCNCC3(CC3)C2)nn1` [Compound 230]: 1 to 10 µM; `CCOc1cc2nc(C)cn2cc1C(=O)Nc1ccc(N2CCNC(CC(F)(F)F)C2)nn1` (centres unmarked) [Compound 231]: 1 to 10 µM.
In the case of `CCOc1cc2nc(C)cn2cc1C(=O)Nc1ccc(N2CCC(CNC(C)C)CC2)nn1` [Compound 232], the half-inhibitory concentration (IC50) was 1 to 10 µM.
Same read-out and setting: the figure for `CCOc1cc2nc(C)cn2cc1C(=O)Nc1ccc(N2CCC(C3CCCN3)C2)nn1` (centres unmarked) [Compound 233] is 1 to 10 µM; for `CCOc1cc2nc(C)cn2cc1C(=O)Nc1ccc(N2CC3C4CCC(NC4)C3C2)nn1` (centres unmarked) [Compound 235] it is 1 to 10 µM.
`CCOc1cc2nc(C)cn2cc1C(=O)Nc1ccc(N2CCC3CCCC(C2)N3)nn1` (centres unmarked) [Compound 236]: the IC50 was in the range of 1 to 10 µM.
Same read-out and setting: next, `CCOc1cc2nc(C)cn2cc1C(=O)Nc1ccc(N2CC3CCC2C2CNCC32)nn1` (centres unmarked) [Compound 237]: 1 to 10 µM.
Still for that read-out and setting: the figure for `CCOc1cc2nc(C)cn2cc1C(=O)Nc1ccc(N2C3CCCC2CNC3)nn1` [Compound 238] is 1 to 10 µM; for `CCOc1cc2nc(C)cn2cc1C(=O)Nc1ccc(N2CCC3CCNCC3C2)nn1` (centres unmarked) [Compound 240] it is 1 to 10 µM; for `CCOc1cc2nc(C)cn2cc1C(=O)Nc1ccc(N2CC34CCCC3(CNC4)C2)nn1` (centres unmarked) [Compound 242] it is 1 to 10 µM.
As for `CCOc1cc2nc(C)cn2cc1C(=O)Nc1ccc(N2CCNC3CCCCC32)nn1` (centres unmarked) [Compound 243], the IC50 was in the range of 1 to 10 µM.
Still for that read-out and setting: the figure for `CCNC1CCN(c2ccc(NC(=O)c3cn4cc(C)nc4cc3OCC)nn2)C1` (centres unmarked) [Compound 244] is < 1 µM; for `CCOc1cc2nc(C)cn2cc1C(=O)Nc1ccc(N2CCC(NCCOC)CC2)nn1` [Compound 245] it is 1 to 10 µM.
On the same count and under the same terms, next, `CCOc1cc2nc(C)cn2cc1C(=O)Nc1ccc(N2C3CCC2CC(NC)C3)nn1` (centres unmarked) [Compound 247]: 1 to 10 µM; `CCOc1cc2nc(C)cn2cc1C(=O)Nc1ccc(N2CC3CCCC(C2)NC3)nn1` (centres unmarked) [Compound 248]: 1 to 10 µM; `CCOc1cc2nc(C)cn2cc1C(=O)Nc1ccc(N2CCC(NCC3CC3)CC2)nn1` [Compound 249]: 1 to 10 µM.
Same read-out and setting: the figure for `CCOc1cc2nc(C)cn2cc1C(=O)Nc1ccc(N(C)C2CCCNCC2)nn1` (centres unmarked) [Compound 250] is 1 to 10 µM; for `CCNC1CCCN(c2ccc(NC(=O)c3cn4cc(C)nc4cc3OCC)nn2)C1` (centres unmarked) [Compound 251] it is 1 to 10 µM.
For the compound `CCOc1cc2nc(C)cn2cc1C(=O)Nc1ccc(N2CCCC3(CCNC3)C2)nn1` (centres unmarked) [Compound 254], the 50% inhibitory concentration (IC50) was 10 to 50 µM.
Same read-out and setting: next, `CCOc1cc2nc(C)cn2cc1C(=O)Nc1ccc(N2CC3CCCC(C2)N3)nn1` [Compound 255]: < 1 µM; `CCOc1cc2nc(C)cn2cc1C(=O)Nc1ccc(N(C)[C@@H]2C[C@H]3CC[C@@H](C2)N3)nn1` [Compound 256]: 1 to 10 µM; `CCOc1cc2nc(C)cn2cc1C(=O)Nc1ccc(N2CCNC(C)CC2)nn1` (centres unmarked) [Compound 257]: 1 to 10 µM.
Compound `CCOc1cc2nc(C)cn2cc1C(=O)Nc1ccc(N2CCNC3CC32)nn1` (centres unmarked) [Compound 258] returned a 50% inhibitory concentration (IC50) of 1 to 10 µM.
As to `CCOc1cc2nc(C)cn2cc1C(=O)Nc1ccc(N2CCN(CC3CCNCC3)CC2)nn1` [Compound 259], the IC50 fell in the range of 1 to 10 µM.
Still for that read-out and setting: next, `CCOc1cc2nc(C)cn2cc1C(=O)Nc1ccc(N2C[C@@H]3CCCN[C@@H]3C2)nn1` [Compound 260]: 1 to 10 µM; `CCNC1CN(c2ccc(NC(=O)c3cn4cc(C)nc4cc3OCC)nn2)C1` [Compound 262]: 1 to 10 µM; `CCOc1cc2nc(C)cn2cc1C(=O)Nc1ccc(N2CCC(C3CCCN3)CC2)nn1` (centres unmarked) [Compound 263]: 1 to 10 µM.

By IC50 is commonly meant the concentration that gives 50% inhibition. Read a low IC50 as greater potency in that assay.
